Article PMC7823661 (Viruses, 2020)
Where a name gives a salt, the structure may show the parent alone.

Assays:
ZIKV-BR in Vero cells = conditions: read-out: concentration giving 50% of viral inhibition, MOI 0.1; cited from earlier work
[1] = tested on: Brazilian ZIKV strain (ZIKV-BR) in Vero cells; experiment: Plaque-forming reduction assay, supernatants of infected Vero cells; assay type: cell-based, Zika virus; conditions: MOI 1, 12 µM, 48 h; for inhibition at 12 µM: Zika virus, read-out: Vero cells PFR (%)
[2] = tested on: Brazilian ZIKV strain (ZIKV-BR) in cervical cells; experiment: Plaque-forming reduction assay, supernatants of infected cervical cells; assay type: cell-based, Zika virus; conditions: for inhibition at 6 µM / inhibition at 12 µM / inhibition at 25 µM / EC50 / EC90: Zika virus; for inhibition at 6 µM: MOI 10, 6 µM; for inhibition at 6 µM / inhibition at 12 µM / inhibition at 25 µM: read-out: Cervical cells PFR (%); for inhibition at 25 µM: MOI 10, 25 µM; for EC50 / EC90: plaque-forming reduction, MOI 10, 48 h
[3] = tested on: Brazilian ZIKV strain (ZIKV-BR) in cervical cells; experiment: Viral genome detection by RT-qPCR in supernatants of infected cervical cells; assay type: cell-based, Zika virus; conditions: supernatant of cervical cells; for reduction of viral load: 12 µM, compared to control; for ZIKV genome copies/mL: MOI 10, 12 µM, 48 h, control 6.7 ± 0.7 × 10^8
[4] = Cytotoxicity assay (PrestoBlue) in mock-infected cervical cells; assay type: cell-based; conditions: human
[5] = Cytotoxicity assay (PrestoBlue) in mock-infected Vero cells; assay type: cell-based; conditions: African green monkey, Vero cells (kidney)
[6] = tested on: Brazilian ZIKV strain (ZIKV-BR) in cervical cells; assay type: cell-based, Zika virus; conditions: ZIKV-BR MOI 10, 12 µM, 48 h, versus 0.12% DMSO
[7] = tested on: ZIKV strain MR766 in Vero cells; set-up: method as in earlier work; conditions: cited from earlier work
[8] = tested on: baby hamster kidney cells (BHK-21); conditions: cited from earlier work
[9] = tested on: P. falciparum W2-chloroquine-resistant clone; conditions: in vitro, read-out: IC50 antiplasmodial; cited from earlier work
[10] = C33-A cervical epithelial cells (mock-infected), mock-infected cervical cells, 48 h, PrestoBlue, read-out: CC50 (μM)/48 h Cervical

Row | SMILES | EC50 (ZIKV-BR in Vero cells) [µM] | inhibition at 12 µM [1] [%] | Cervical cells IS (selectivity index, CC50/EC50) [2] | inhibition at 6 µM ([2]; 48 h, 48 h) [%] | inhibition at 12 µM ([2]; 48 h, MOI 10, 12 µM, 48 h) [%] | inhibition at 25 µM ([2]; 48 h, 48 h) [%] | EC50 [2] [µM] | EC90 [2] [µM] | reduction of viral load [3] [logs] | ZIKV genome copies/mL [3] | CC50 at 48 h [4, 10] [µM] | CC50 at 48 h [5] [µM] | Vero cells PFR (%) [1] [%] | Cervical cells PFR (%) ([2]; MOI 10, 12 µM, 48 h) | reduction of infected cells [6] | EC50 [7] [µM] | CC50 at 48 h [4] [µM] | CC50 [8] [µM] | IC50 [9] [µM]
1 | CCN(CC)CCCC(C)Nc1ccnc2cc(Cl)ccc12 (centres unmarked) [chloroquine] | 12 ± 3.2 | – | – | – | – | – | – | – | – | – | – | – | – | – | – | – | – | – | –
2 | O=S(=O)(NCCCCNc1ccnc2cc(Cl)ccc12)c1ccc(Cl)cc1 [C-Sd5, 4-Chloro-N-(4-((7-chloroquinolin-4-yl)amino)butyl)-benzenesulfonamide] | – | 100 | > 62.5 | 82.3 ± 0.3 | 99.5 ± 0.2 | 100 | 3.2 ± 0.1 | 7.2 ± 0.1 | 3 | 2.0 ± 0.4 × 10^5 copies/mL | > 200 | 52.2 ± 3.2 | – | – | – | – | – | – | –
3 | OC(c1cc(C(F)(F)F)nc2c(C(F)(F)F)cccc12)C1CCCCN1 [Mefloquine, (R)-(2.8-bis(trifluoromethyl)quinolin-4-yl)((S)-piperidin-2-yl)methanol hydrochloride, reference compound] | – | 100 | 30.5 | 97.7 ± 0.3 | 100 | – | 1.6 ± 0.1 | 3.5 ± 0.2 | – | 2.0 ± 0.6 × 10^5 copies/mL | – | 26.7 ± 0.9 | 100 | 100 | 96.3% ± 3.7 | 3.9 ± 0.2 | 48.8 ± 0.2 | 17.7 ± 3.5 | –
4 | O=S(=O)(NCCCCNc1ccnc2cc(Cl)ccc12)c1ccc(F)cc1 [C-Sd7, N-(4-((7-chloroquinolin-4-yl)amino)butyl)-4-fluorobenzenesulfonamide] | – | 100 | – | 75.1 ± 0.8 | 94.7 ± 0.7 | 100 | 3.6 ± 0.1 | 9.9 ± 0.2 | 2 | 2.6 ± 0.5 × 10^6 copies/mL | > 200 | 74.8 ± 1.2 | – | – | – | – | – | – | –
5 | Cc1ccc(S(=O)(=O)NCCCNc2ccnc3cc(Cl)ccc23)cc1 [C-Sd1, N-(3-((7-chloroquinolin-4-yl)amino)propyl)-4-methyl-benzenesulfonamide] | – | 100 | – | 75.3 ± 1.3 | 94.2 ± 0.5 | 100 | 3.6 ± 0.2 | 9.6 ± 0.6 | 2 | 1.0 ± 0.1 × 10^6 copies/mL | 130 ± 2 | 97 ± 0.5 | – | – | – | – | – | – | –
6 | O=S(=O)(NCCCCNc1ccnc2cc(Cl)ccc12)c1ccccc1 [C-Sd4, N-(4-((7-chloroquinolin-4-yl)amino)butyl)-benzenesulfonamide] | – | 100 | – | 56.6 ± 0.5 | 92.5 ± 0.2 | 100 | 5 ± 0.2 | 11.6 ± 0.1 | 2 | 5.1 ± 0.6 × 10^6 copies/mL | > 200 | 143 ± 1.3 | – | – | – | – | – | – | –
7 | COc1ncnc(NS(=O)(=O)c2ccc(N)cc2)c1OC [sulfadoxine] | – | – | – | – | – | – | – | – | – | – | – | – | – | – | – | – | – | – | > 15.5
8 | O=S(=O)(NCCCNc1ccnc2cc(Cl)ccc12)c1ccc(F)cc1 [C-Sd3, N-(3-((7-chloroquinolin-4-yl)amino)propyl)-4-fluorobenzenesulfonamide] | – | 100 | – | 75 ± 1 | 94 ± 0.7 | 100 | 3.7 ± 0.1 | 10.1 ± 0.1 | 2 | 4.9 ± 0.3 × 10^6 copies/mL | > 200 | 141 ± 4.4 | – | – | – | – | – | – | –
9 | O=S(=O)(NCCCCNc1ccnc2cc(Cl)ccc12)c1ccc(Br)cc1 [C-Sd6, 4-Bromo-N-(4-((7-chloroquinolin-4-yl)amino)butyl)-benzenesulfonamide] | – | 100 | > 60.6 | 82 ± 0.5 | 94.8 ± 0.5 | 100 | 3.3 ± 0.1 | 7.4 ± 0.2 | 3 | 2.0 ± 0.2 × 10^5 copies/mL | > 200 | 43.2 ± 0.4 | – | – | over 88% | – | – | – | –
10 | O=S(=O)(NCCCNc1ccnc2cc(Cl)ccc12)c1ccc(Br)cc1 [C-Sd2, 4-Bromo-N-(3-((7-chloroquinolin-4-yl)amino)propyl)-benzenesulfonamide] | – | 100 | – | 80.8 ± 0.8 | 93.7 ± 0.3 | 100 | 3.3 ± 0.2 | 7.8 ± 0.4 | 2 | 2.8 ± 0.4 × 10^6 copies/mL | 112 ± 1.8 | 56.7 ± 0.4 | – | – | – | – | – | – | –
